Laboratory results from PubChem BioAssay (NCI).
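Exposure lasted 48 hours, with cells grown in 96-well plates and compounds tested at five concentrations. The concentration for 50% growth inhibition is given as GI50. TGI denotes the concentration required for complete inhibition of growth.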

Assays:
Assay in all cases: DTP human tumour cell line panel, 48 h
MCF7 breast = tested on: MCF7 breast
LOX IMVI melanoma = tested on: LOX IMVI melanoma
SK-MEL-28 melanoma = tested on: SK-MEL-28 melanoma
NCI-H226 lung = tested on: NCI-H226 lung
HOP-62 NSCLC = tested on: HOP-62 NSCLC
NCI/ADR-RES ovarian = tested on: NCI/ADR-RES ovarian
SW-620 colon = tested on: SW-620 colon
SK-MEL-5 melanoma = tested on: SK-MEL-5 melanoma
HCT-116 colon = tested on: HCT-116 colon
786-0 renal = tested on: 786-0 renal
IGROV1 ovarian = tested on: IGROV1 ovarian
ACHN renal = tested on: ACHN renal
SN12C renal = tested on: SN12C renal
MDA-MB-231 breast = tested on: MDA-MB-231 breast
OVCAR-3 ovarian = tested on: OVCAR-3 ovarian
UACC-62 melanoma = tested on: UACC-62 melanoma
COLO 205 colon = tested on: COLO 205 colon
SNB-75 CNS = tested on: SNB-75 CNS
OVCAR-5 ovarian = tested on: OVCAR-5 ovarian
A498 renal = tested on: A498 renal
SK-OV-3 ovarian = tested on: SK-OV-3 ovarian
MDA-MB-435 = tested on: MDA-MB-435
HOP-92 NSCLC = tested on: HOP-92 NSCLC
SF-539 CNS = tested on: SF-539 CNS
OVCAR-8 ovarian = tested on: OVCAR-8 ovarian
HS 578T breast = tested on: HS 578T breast
HT29 colon = tested on: HT29 colon
SK-MEL-2 melanoma = tested on: SK-MEL-2 melanoma
DU-145 prostate = tested on: DU-145 prostate
MALME-3M melanoma = tested on: MALME-3M melanoma
CAKI-1 renal = tested on: CAKI-1 renal
BT-549 breast = tested on: BT-549 breast
CCRF-CEM leukemia = tested on: CCRF-CEM leukemia
HCC-2998 colon = tested on: HCC-2998 colon
EKVX NSCLC = tested on: EKVX NSCLC
K-562 leukemia = tested on: K-562 leukemia
OVCAR-4 ovarian = tested on: OVCAR-4 ovarian
T-47D breast = tested on: T-47D breast
NCI-H23 lung = tested on: NCI-H23 lung
A549 NSCLC = tested on: A549 NSCLC
TK-10 renal = tested on: TK-10 renal
UO-31 renal = tested on: UO-31 renal
KM12 colon = tested on: KM12 colon
NCI-H522 lung = tested on: NCI-H522 lung
NCI-H460 lung = tested on: NCI-H460 lung
SR leukemia = tested on: SR leukemia
SF-295 CNS = tested on: SF-295 CNS
PC-3 prostate = tested on: PC-3 prostate
M14 melanoma = tested on: M14 melanoma
HCT-15 colon = tested on: HCT-15 colon
HL-60(TB) leukemia = tested on: HL-60(TB) leukemia
U251 CNS = tested on: U251 CNS
RPMI-8226 leukemia = tested on: RPMI-8226 leukemia
SNB-19 CNS = tested on: SNB-19 CNS
UACC-257 melanoma = tested on: UACC-257 melanoma
SF-268 CNS = tested on: SF-268 CNS
MOLT-4 leukemia = tested on: MOLT-4 leukemia

## O=C(/C=C/c1cccc(B(O)O)c1)c1cccc(B(O)O)c1
MCF7 breast
  GI50: 742 nM
  TGI: 7580 nM
LOX IMVI melanoma
  GI50: 760 nM
  TGI: 2030 nM
SK-MEL-28 melanoma
  GI50: 1720 nM
  TGI: 3460 nM
NCI-H226 lung
  GI50: 1910 nM
  TGI: 4140 nM
HOP-62 NSCLC
  GI50: 1590 nM
  TGI: 3260 nM
NCI/ADR-RES ovarian
  GI50: 1990 nM
  TGI: 5470 nM
SW-620 colon
  GI50: 765 nM
  TGI: 2310 nM
SK-MEL-5 melanoma
  GI50: 1850 nM
  TGI: 3830 nM
HCT-116 colon
  GI50: 376 nM
  TGI: 1570 nM
786-0 renal
  GI50: 1750 nM
  TGI: 3710 nM
IGROV1 ovarian
  GI50: 2520 nM
  TGI: 6650 nM
ACHN renal
  GI50: 2140 nM
  TGI: 4330 nM
SN12C renal
  GI50: 1700 nM
  TGI: 3610 nM
MDA-MB-231 breast
  GI50: 1580 nM
  TGI: 3170 nM
OVCAR-3 ovarian
  GI50: 828 nM
  TGI: 2380 nM
UACC-62 melanoma
  GI50: 1660 nM
  TGI: 4310 nM
COLO 205 colon
  GI50: 1760 nM
  TGI: 3450 nM
SNB-75 CNS
  GI50: 3610 nM
  TGI: 16300 nM
OVCAR-5 ovarian
  GI50: 2170 nM
  TGI: 4870 nM
A498 renal
  GI50: 1520 nM
  TGI: 3500 nM
SK-OV-3 ovarian
  GI50: 3160 nM
  TGI: 11600 nM
MDA-MB-435
  GI50: 1900 nM
  TGI: 4880 nM
HOP-92 NSCLC
  GI50: 1530 nM
  TGI: 3590 nM
SF-539 CNS
  GI50: 1840 nM
  TGI: 3730 nM
OVCAR-8 ovarian
  GI50: 2190 nM
  TGI: 7230 nM
HS 578T breast
  GI50: 3890 nM
  TGI: 54800 nM
HT29 colon
  GI50: 1680 nM
  TGI: 3170 nM
SK-MEL-2 melanoma
  GI50: 2260 nM
  TGI: 5200 nM
DU-145 prostate
  GI50: 1830 nM
  TGI: 3790 nM
MALME-3M melanoma
  GI50: 2260 nM
  TGI: 6010 nM
CAKI-1 renal
  GI50: 2850 nM
  TGI: 12600 nM
BT-549 breast
  GI50: 1060 nM
  TGI: 2370 nM
CCRF-CEM leukemia
  GI50: 445 nM
  TGI: 2670 nM
HCC-2998 colon
  GI50: 1800 nM
  TGI: 3200 nM
EKVX NSCLC
  GI50: 6380 nM
  TGI: 23100 nM
K-562 leukemia
  GI50: 2130 nM
  TGI: 9000 nM
OVCAR-4 ovarian
  GI50: 3270 nM
  TGI: 22200 nM
T-47D breast
  GI50: 2310 nM
  TGI: 9580 nM
NCI-H23 lung
  GI50: 1810 nM
  TGI: 4440 nM
A549 NSCLC
  GI50: 2120 nM
  TGI: 5810 nM
TK-10 renal
  GI50: 2570 nM
  TGI: 6470 nM
UO-31 renal
  GI50: 1710 nM
  TGI: 3360 nM
KM12 colon
  GI50: 1370 nM
  TGI: 2790 nM
NCI-H522 lung
  GI50: 1510 nM
  TGI: 3020 nM
NCI-H460 lung
  GI50: 1990 nM
  TGI: 4530 nM
SR leukemia
  GI50: 314 nM
  TGI: 1650 nM
SF-295 CNS
  GI50: 3900 nM
  TGI: 15600 nM
PC-3 prostate
  GI50: 2530 nM
  TGI: 11200 nM
M14 melanoma
  GI50: 1510 nM
  TGI: 3330 nM
HCT-15 colon
  GI50: 1550 nM
  TGI: 4300 nM
HL-60(TB) leukemia
  GI50: 2170 nM
  TGI: 6330 nM
U251 CNS
  GI50: 406 nM
  TGI: 1520 nM
RPMI-8226 leukemia
  GI50: 2250 nM
  TGI: 5680 nM
SNB-19 CNS
  GI50: 2130 nM
  TGI: 10400 nM
UACC-257 melanoma
  GI50: 1380 nM
  TGI: 3310 nM
SF-268 CNS
  GI50: 1800 nM
  TGI: 5560 nM
MOLT-4 leukemia
  GI50: 2100 nM
  TGI: 5960 nM
